Series [1] concerns TNF-α production. On the set-up: method as in PMID 11278990. To be noted: cited from earlier work.
Series [2] deals with MCF7 (breast cancer). The series can be described thus: Alamar Blue assay, tumoral cells MCF7. It counts as cell-based. The following applies: 72 h, 20 µmol/L. As for the experimental part: (§1) We also investigated possible cytotoxic effects on tumor cell lines (Table 1). To characterize this activity, the compounds were tested in different tumor cell lines, among which were AGP-01 (gastric), HCT116 (colorectal), MCF07 (breast cancer), NIHOVCAR (ovary), SKAMELL-4 (melanoma), and SF-295 (human glioblastoma), each at a concentration of 20 µM.
(§2) Cytotoxicity assay. The cytotoxicity of diterpene compounds to the murine macrophage cell line J774 was determined by the Alamar Blue method as described by Nakayama et al.. Briefly, adherent cells (5 × 10^3 cells/well) were grown in 96-well tissue culture plates and exposed to substances (2.5 to 10 µg/mL) for 24, 48 and 72 h. After incubation, the Alamar Blue solution (10 μL of 0.4% Alamar Blue (resazurin) in PBS) was added and the cells were incubated for 3 h at 37 °C. Fluorescence was measured (excitation at 545 nm and emission at 595 nm) and expressed as a percentage of the cells in the control after background fluorescence was subtracted. As a positive control of cell death, doxorubicin (5 µg/mL) was used. The assays were performed in triplicate. For the assays with tumoral cells, an Alamar Blue assay was performed using the following cell lines: AGP01—gastric; HCT116—colorectal; MCF07—breast cancer; NIHOVCAR—ovary; SKAMELL4—melanoma; SF295—human glioblastoma, which were seeded in 96-well plates (0.5 × 10^4 cells per well) and incubated in a CO2 atmosphere at 5% and 37 °C. After 24 h, diterpenes at 20 µM were added to each well and incubated for 72 h. Doxorubicin (10 μM) was used as a positive control and DMSO (0.1%) as a negative control. Before the end of the incubation, 10 µL of Alamar Blue (0.02%) was added to each well. The fluorescent signal was monitored using a multiplate reader using a 530–560 nm excitation wavelength and 590 nm emission wavelength. The fluorescent signal generated from the assay was proportional to the number of live cells in the sample, according to the manufacturer.

Series [3] concerns NIHOVCAR (ovary). Kind of series: Alamar Blue assay, tumoral cells NIHOVCAR
It counts as cell-based. To be noted: 72 h, 20 µmol/L. Here is the method: as §1, §2
A general note: Alamar Blue is a resazurin reagent that responds to reducing activity.

Series [4] deals with HCT-116 (colorectal). Kind of series: Alamar Blue assay, tumoral cells HCT-116. The series is classed as cell-based. To be noted: 72 h, 20 µmol/L. Here is the method:
as §1, §2

Series [5] has as its system SKMELL28 (melanoma). Kind of series: Alamar Blue assay, tumoral cells SKMELL28. The series is classed as cell-based. The following applies: 72 h, 20 µmol/L. As for the experimental part:
as §1, §2

Series [6] relates to AGP01 (gastric). Kind of series: Alamar Blue assay, tumoral cells AGP01. It counts as cell-based. The following applies: 72 h, 20 µmol/L. Here is the method: as §1, §2
Series [7] addresses Lipoxygenase (LOX) (Glycine max, UniProt P08170). The series can be described thus: Lipoxygenase inhibition. It counts as biochemical. Here is the method:
Figure 1 Tyrosinase and lipoxygenase activities of the isolated diterpenes from Copaifera sp. […] 1. 3-hydroxy-copalic acid, 2. kaurenoic acid, 3. 3-acetoxy-copalic acid, 4. kolavic acid15-methyl ester, 5. copalic acid, and 6. hardwickiic acid. Each value is the mean ± S.E. of three independent experiments. Statistical analysis was performed using Holm-Sidak multiple comparisons. * p < 0.05 compared with the negative control.

Series [8] relates to IL-6 production. The series can be described thus: IL-6 production in LPS-stimulated J774 cells (CBA). The series is classed as cell-based, murine. The following applies: for inhibition of IL-6 production (words): LPS-stimulated J774; for inhibition at 25 µM: Mus musculus, J774, 25 µM (abstract). As for the experimental part:
Figure 2 Effect of the isolated diterpenic acids on nitric oxide (NO^•) and cytokine production in lipopolysaccharide-stimulated J774 cells. (A) TNF-α, (B) IL-6 and (C) IL-10 and (D) NO^•. […] The nitrite and cytokines values are the mean ± S.D. from three independent experiments. Indomethacin was used as a standard. Statistical analysis was performed using the Holm-Sidak multiple comparison. * p < 0.05 when compared to control stimulated with LPS. (1) 3-hydroxy-copalic acid, (2) kaurenoic acid, (3) 3-acetoxy-copalic acid, (4) kolavic acid 15-methyl ester, (5) copalic acid and (6) hardwickiic acid.
[…] The culture supernatants were collected after 24 h of LPS stimulation. The levels of cytokines in the culture media were measured by flow cytometry (BD Cytometric Bead Array—CBA—Mouse Inflammation kit) according to the manufacturer’s instructions.

Series [9] deals with IL-10 production. The series can be described thus: IL-10 production in LPS-stimulated J774 cells (CBA). The series is classed as cell-based, murine. As for the experimental part: Figure 2 Effect of the isolated diterpenic acids on nitric oxide (NO^•) and cytokine production in lipopolysaccharide-stimulated J774 cells. (A) TNF-α, (B) IL-6 and (C) IL-10 and (D) NO^•. Production of NO^• was assayed in culture supernatants of macrophages stimulated with LPS (1 µg/mL) for 24 h in the presence of the four compounds (25 µg/mL to cytokines and 50 µg/mL to NO^•). The nitrite and cytokines values are the mean ± S.D. from three independent experiments. Indomethacin was used as a standard. Statistical analysis was performed using the Holm-Sidak multiple comparison. * p < 0.05 when compared to control stimulated with LPS. (1) 3-hydroxy-copalic acid, (2) kaurenoic acid, (3) 3-acetoxy-copalic acid, (4) kolavic acid 15-methyl ester, (5) copalic acid and (6) hardwickiic acid.
Macrophage cells (1 × 10^6 cells/mL) were incubated with different concentrations of diterpene compounds (12.5 to 50 μM), and then stimulated with 1 μg/mL of LPS. The culture supernatants were collected after 24 h of LPS stimulation. The levels of cytokines in the culture media were measured by flow cytometry (BD Cytometric Bead Array—CBA—Mouse Inflammation kit) according to the manufacturer’s instructions.

For series [10], the system named is nitric oxide production in J774 macrophages stimulated with LPS. The series can be described thus: NO production assay (Griess) in LPS-stimulated J774 cells. It counts as cell-based, murine. To be noted: Mus musculus; J774, LPS 1 µg/mL, 24 h; read-out: inhibition of NO production IC50. Here is the method: Our study evaluated the effects of diterpene compounds on the production of nitric oxide in the murine macrophage cell line J774 stimulated with LPS (Figure 2D). NO^• levels were measured by the Greiss method. […] Similar results for kaurenoic acid were observed by Choi et al. […] Figure 2 Effect of the isolated diterpenic acids on nitric oxide (NO^•) and cytokine production in lipopolysaccharide-stimulated J774 cells. (A) TNF-α, (B) IL-6 and (C) IL-10 and (D) NO^•. […] The nitrite and cytokines values are the mean ± S.D. from three independent experiments. Indomethacin was used as a standard. Statistical analysis was performed using the Holm-Sidak multiple comparison. * p < 0.05 when compared to control stimulated with LPS. (1) 3-hydroxy-copalic acid, (2) kaurenoic acid, (3) 3-acetoxy-copalic acid, (4) kolavic acid 15-methyl ester, (5) copalic acid and (6) […]. NO^• production by J774 cells was assayed by measuring the accumulation of nitrite in the culture medium using a Griess reaction. Briefly, after incubation of the cells (1 × 10^6 cells/mL) with diterpene compounds in different concentrations from 6.25 to 100 μM, cells were incubated for 24 h with LPS (1 μg/mL), at 37 °C in a 5% CO2 incubator. Nitric oxide was measured as NO2 in culture supernatant by reaction with Griess reagent. Absorbance of the reaction product was determined at 560 nm using a microplate reader (DTX 800, Beckman). Sodium nitrite was used as a standard to calculate nitrite concentrations.

In series [11] the test system is SF295 (human glioblastoma). Kind of series: Alamar Blue assay, tumoral cells SF295. The series is classed as cell-based. The following applies: 72 h, 20 µmol/L. Here is the method: as §1, §2
Series [12] deals with TNF-α production in RAW 264.7 murine macrophages. On the set-up: method as in PMID 18267111. To be noted: 20 µM to 50 µM; cited from earlier work.
Series [13] has as its system MCP-1 production in RAW 264.7 murine macrophages. Also noted: method as in PMID 18267111. The following applies: 20 µM to 50 µM; cited from earlier work.
Series [14] has as its system MCF -7 (breast cancer). On the set-up: method as in PMID 12165328. To be noted: single concentration of 78 µM; cited from earlier work.
Series [15] relates to CEM (leukemia). On the set-up: method as in PMID 12165328. To be noted: single concentration of 78 µM; cited from earlier work.
The test system of series [16] is TNF-α production and expression. Also noted: method as in PMID 18313400. To be noted: 1 to 20 mg/mL; kaurenoic acid from Helianthus annuus L.; cited from earlier work.
The subject of series [17] is HCT -8 cells (colon cancer). Also noted: method as in PMID 12165328. The following applies: single concentration of 78 µM; cited from earlier work.
In series [18] the test system is NO production in RAW 264.7 macrophage stimulated by LPS. On the set-up: method as in PMID 16280009. The following applies: RAW 264.7, LPS; kaurenoic acid from Aralia continentalis; read-out: inhibition of NO production IC50; cited from earlier work.
For series [19], the system named is erythrocyte. The series can be described thus: Hemolysis test.
Experimental: The assay for the characterization of hemolytic activity aimed to evaluate the potential of diterpenes on lysis of the cell membrane.
Blood was collected in heparinized-tubes from Wistar rats, and washed three times with saline solution (NaCl 0.85% + CaCl2 10 mM) by centrifugation at 700 g for 10 min. The pellet of erythrocyte was re-suspended in saline solution for preparation of erythrocyte suspension −2% (SE). A total of 100 µL of the samples of diluted diterpenes was added to 96-well microplates in different concentrations (6.25 to 800 µM); 100 µL of SE was then added; and the samples were incubated for 60 min at 37 °C under constant agitation. The release of hemoglobin was determined after centrifugation (700 g for 10 min) by photometric analysis of the supernatant at 540 nm. Complete hemolysis was achieved using 0.2% Triton X-100 yielding the 100% control value.
[20] abbreviates: LPS-stimulated J774, 12.5 to 50 µM.

Entries after “also recorded” stand apart in the source; their conditions may differ. A value given as a limit tells only on which side of the number the result lay.

Lipoxygenase (LOX), sequence (P08170 whole entry): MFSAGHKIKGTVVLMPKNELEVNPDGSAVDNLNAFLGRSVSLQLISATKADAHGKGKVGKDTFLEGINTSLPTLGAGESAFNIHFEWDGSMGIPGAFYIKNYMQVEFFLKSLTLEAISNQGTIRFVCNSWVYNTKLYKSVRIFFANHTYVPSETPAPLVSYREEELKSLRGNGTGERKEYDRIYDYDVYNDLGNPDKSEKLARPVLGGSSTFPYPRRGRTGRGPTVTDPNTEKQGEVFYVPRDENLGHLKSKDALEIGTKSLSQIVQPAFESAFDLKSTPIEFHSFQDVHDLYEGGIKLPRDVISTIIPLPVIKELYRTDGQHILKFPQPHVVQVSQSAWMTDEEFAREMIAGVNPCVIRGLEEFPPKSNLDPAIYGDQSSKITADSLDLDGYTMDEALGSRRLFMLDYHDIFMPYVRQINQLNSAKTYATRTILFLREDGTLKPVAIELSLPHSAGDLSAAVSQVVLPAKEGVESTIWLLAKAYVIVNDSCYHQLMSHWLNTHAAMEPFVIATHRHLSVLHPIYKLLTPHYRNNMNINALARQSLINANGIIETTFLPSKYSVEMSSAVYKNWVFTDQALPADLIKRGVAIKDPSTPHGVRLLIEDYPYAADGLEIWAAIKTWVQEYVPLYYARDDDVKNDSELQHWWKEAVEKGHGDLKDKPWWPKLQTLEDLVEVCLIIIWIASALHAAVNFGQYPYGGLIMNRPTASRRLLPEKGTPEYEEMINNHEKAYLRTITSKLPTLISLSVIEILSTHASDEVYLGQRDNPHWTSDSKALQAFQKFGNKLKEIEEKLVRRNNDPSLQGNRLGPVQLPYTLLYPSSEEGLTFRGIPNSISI

Turning to linearol acid, the “inhibition of TNF-α production” value in series [1] is listed as “showed inhibitory activity on the production of TNF-α”.

A word on the inhibition: it is the relative decrease from the control value, in per cent. Low readings indicate a response near the control, high ones a response far below the control. The IC50 is the midpoint of a concentration-inhibition curve. Take `COC(=O)/C=C(/C)CC[C@@]1(C)[C@H](C)CC[C@@]2(C)C(C(=O)O)=CCC[C@H]12` [kolavic acid 15-methyl ester, Kolavic acid-15-metyl ester]: the “Viability inhibition (%) MCF7” value in series [2] is on record as at most 0.01%. For the same molecule, the “Viability inhibition (%) NIHOVCAR” value in series [3] was at most 0.01%. Also, the “Viability inhibition (%) HCT-116” value in [4] is on record as at most 0.01%. Moreover, in [5], the “Viability inhibition (%) SKMELL28” value is at most 0.01%. Further, in series [6], the “Viability inhibition (%) AGP01” value came to 17.4 ± 6.7%. The lipoxygenase inhibition in [7] (200 µM) is on record as 89.5% ± 1.2%. Further, the “lipoxygenase inhibition activity” value in series [7] (conclusions, compared to standard quercetin) is “high lipoxigenase inhibition activity”. For the same molecule, the “inhibition of IL-6 production (words)” value in series [8] (listed as kolavic-15-methyl ester) is “inhibited the production of IL-6”. Besides, the inhibition at 25 µM in [8] was determined as 17.3%. Also, the “IL-10 production (words)” value in [9] (setting [20]) is “did not induce the production of IL-10”. The IC50 in series [10] turned out to be 81.6 ± 2.8 µM. The “Viability inhibition (%) SF295” value in series [11] is listed as at most 0.01%.

With foliol, the “inhibition of TNF-α production” value in series [1] was “showed inhibitory activity on the production of TNF-α”.

On to `CC(C)c1ccc2c(c1)CC[C@H]1[C@](C)(C(=O)O)CCC[C@]21C` [Dehydroabietic acid], for which, in [12], the “suppression of TNF-α production” value is recorded as “suppresses production”. Moreover, in series [13], the “suppression of MCP-1 production” value was “suppresses production”.

As for `C=C1C[C@@]23CC[C@H]4[C@@](C)(CCC[C@@]4(C)C(=O)O)[C@@H]2CC[C@@H]1C3` [kaurenoic acid], in series [14], the “inhibition of MCF-7 tumor cells” value is recorded as 45%. In addition, the “Viability inhibition (%) MCF7” value in series [2] is at most 0.01%. Moreover, the “inhibition of CEM tumor cells” value in series [15] is on record as 95%. Also, the “Viability inhibition (%) NIHOVCAR” value in series [3] (listed as Kaurenoic Acid) is at most 0.01%. The “Viability inhibition (%) HCT-116” value in [4] (listed as Kaurenoic Acid) came out at 0.27 ± 4.3%. The “Viability inhibition (%) SKMELL28” value in series [5] is reported as at most 0.01%. Also, in series [16], the “inhibition of TNF-α production and expression” value is “inhibitory activity on the production and expression of TNF-α”. Also, the “Viability inhibition (%) AGP01” value in series [6] (listed as Kaurenoic Acid) was found to be 28.1 ± 4.3%. Further, the “inhibition of IL-6 production (words)” value in series [8] (listed as Kaurenoic) is recorded as “inhibited the production of IL-6”; in series [8] (listed as kaurenoic), “inhibited IL-6 production”. The molecule further yielded an inhibition at 25 µM in series [8] of 11.2%. The “inhibition of HCT-8 tumor cells” value in series [17] was 45%. The IC50 in series [18] is 51.7 ± 2.4 µM; in series [10], 61.2 ± 4.2 µM. Also, the hemolytic activity in series [19] (100 µM (abstract)) and in series [19] (100 mM (so in the source)) was 61.7% in each case. Moreover, the “IL-10 production (words)” value is on record as “induced the production of IL-10” in [9] (12.5 µM and 25 µM); “this induction decreased” in [9] (50 µM); “increased IL-10 production; also recorded: induced IL-10 production; also recorded: induced production of interleukin-10” in series [9] (setting [20]). Besides, the “Viability inhibition (%) SF295” value is recorded as 28.0 ± 6.5% in series [11] (listed as Kaurenoic Acid) and “around 20%” in series [11] (listed as kaurenoic).
